{"source": "patent US8835478B2", "about": "“Treatment for cancer” (Pitney Pharmaceuticals PTY Limited, priority 2005, dated 2014)", "key": {"1A9PTX22 cells [1]": {"system": "1A9PTX22 cells", "assay": "SRB assay, 72 hours, cross resistance of 1A9PTX22 compared to parent line 1A9", "assay_type": "cell-based, human", "conditions": "for concentration at which partial resistance of 1A9PTX22 is apparent: 1A9PTX22 vs 1A9, p<0.001; for degree of sensitivity of 1A9PTX22 cells compared to parent cell line 1A9: various concentrations", "procedure": "(§1) Cells were harvested from exponential phase cultures by trypsinization, counted and plated in 96-well plates. Optimal seeding densities for each cell line were determined to ensure exponential growth during a 5-day assay. Seeding densities were 5000, 1000, 400 and 3500 cells per well for OVCAR-3, SKOV-3, 1A9 and 1A9PTX22 cells, respectively. Cells plated in 96-well tissue culture plates were treated with 100 μl cell culture medium containing various concentrations of albendazole, paclitaxel or a combination of the two. Both albendazole and paclitaxel were originally made up in absolute ethanol and subsequently diluted with cell culture medium to give the desired drug concentrations with a final ethanol concentration of 1%. Treatment media were replaced on alternate days. At the end of the treatment period (5 days), wells were assayed for cellular protein content. The SRB assay was performed according to the method described by Skehan et al. (1990) and Papazisis at al. (1997), with minor modifications. The culture medium was aspirated prior to fixation of the cells by the addition of 100 μl 10% cold trichloroacetic acid. After an hour incubation at 4° C., cells were washed five times with water. The cells were then stained with 200 μl 0.4% SRB dissolved in 1% acetic acid for at least 15 min and subsequently washed four times with 1% acetic acid to remove unbound stain. The plates were left to dry at room temperature and bound protein stain was solubilized with 100 μl 10 mM un-buffered Tris base [tris(hydroxymethyl)aminomethane)] before reading the optical density (OD) at 570 nm.\n1A9 and 1A9PTX22 cells plated in 96-well tissue culture plates were treated with 100 μl cell culture medium containing various concentrations of vincristine and colchicine for 72 hours and SRB assays conducted as described above. As for paclitaxel (see Example 1), both vincristine and colchicine were originally made up in absolute ethanol and subsequently diluted with cell culture medium to give the desired drug concentrations with a final ethanol concentration of 1%. The results are illustrated in FIGS. 5A (vincristine) and 5B (colchicine). […] The partial resistance of 1A9PTX22 is apparent for vincristine at concentrations of 5 nM and above and for colchicine at 100 nM and above (p<0.001)."}, "1A9 cells": {"system": "1A9 cells", "assay": "Sulforhodamine B (SRB) cell proliferation assay, 5-day treatment, 1A9", "assay_type": "cell-based", "conditions": "Homo sapiens", "procedure": "(§2) Human ovarian carcinoma cell lines OVCAR-3, SKOV-3, 1A9 and 1A9PTX22 were used. OVCAR-3 and SKOV-3 cells were obtained from the American Type Culture Collection (ATCC) and maintained on RPMI medium and McCoy5A medium respectively according to ATCC instructions. 1A9 is a clone of the human ovarian carcinoma cell line, A2780 (Sackett et al., 1997). 1A9PTX22 is a paclitaxel resistant subclone of 1A9 cells, isolated as an individual clone in a single step selection by exposing 1A9 cells to 5 ng/ml paclitaxel in the presence of 5 μg/ml verapamil, a Pgp antagonist (Giannakakou et al., 1997). Cells were maintained in 15 ng/ml paclitaxel and 5 μg/ml verapamil continuously.\n(§3) Sulforhodamine B (SRB) colorimetric assay was used to study the effect of albendazole, paclitaxel or their combination on tumour cell cytotoxicity in vitro.\n(§4) Cells were harvested from exponential phase cultures by trypsinization, counted and plated in 96-well plates. Optimal seeding densities for each cell line were determined to ensure exponential growth during a 5-day assay. Seeding densities were 5000, 1000, 400 and 3500 cells per well for OVCAR-3, SKOV-3, 1A9 and 1A9PTX22 cells, respectively. […] The plates were left to dry at room temperature and bound protein stain was solubilized with 100 μl 10 mM un-buffered Tris base [tris(hydroxymethyl)aminomethane)] before reading the optical density (OD) at 570 nm. […]"}, "SKOV-3 cells": {"system": "SKOV-3 cells", "assay": "Sulforhodamine B (SRB) cell proliferation assay, 5-day treatment, SKOV-3", "assay_type": "cell-based, human", "conditions": "5 days", "procedure": "as §2, §3, §4"}, "1A9PTX22 cells [2]": {"system": "1A9PTX22 cells", "assay": "Sulforhodamine B (SRB) cell proliferation assay, 5-day treatment, 1A9PTX22 (paclitaxel resistant)", "assay_type": "cell-based, human", "conditions": "for effect on cell proliferation: 1A9PTX22", "procedure": "as §2, §3\nas §1, with “Both albendazole and paclitaxel were originally made up in absolute ethanol and subsequently diluted with cell culture medium to give the desired drug concentrations with a final ethanol concentration of 1%.” left out\nFor each of the four cell lines used in this study, sensitivity of each line was initially tested by incubating cells with various concentrations of albendazole or paclitaxel for 5 days. The SRB assay was performed at the end of the treatment period to determine cell response to drug treatment."}}, "data": [{"compound": "CC[C@]1(O)C[C@H]2CN(CCc3c([nH]c4ccccc34)[C@@](C(=O)OC)(c3cc4c(cc3OC)N(C=O)[C@H]3[C@@](O)(C(=O)OC)[C@H](OC(C)=O)[C@]5(CC)C=CCN6CC[C@]43[C@@H]65)C2)C1", "note": "[vincristine]", "values": [{"measurement": "concentration at which partial resistance of 1A9PTX22 is apparent", "setting": "1A9PTX22 cells [1]", "result": "≥ 5", "unit": "nM"}, {"measurement": "degree of sensitivity of 1A9PTX22 cells compared to parent cell line 1A9", "setting": "1A9PTX22 cells [1]", "result": "significantly reduced"}]}, {"compound": "CCCSc1ccc2nc(NC(=O)OC)[nH]c2c1", "note": "[albendazole]", "values": [{"measurement": "inhibition at 0.1 µM", "setting": "1A9 cells; 1A9, 120 h, read-out: inhibition of proliferation", "result": 11.8, "unit": "%"}, {"measurement": "reduction in cell proliferation", "setting": "SKOV-3 cells; 0.25 μM albendazole alone", "result": 48.4, "unit": "%"}, {"measurement": "sensitivity of 1A9PTX22 compared to the parent line (1A9)", "setting": "1A9PTX22 cells [2]; 1A9PTX22 vs 1A9, various concentrations, 5 days", "result": "even more sensitive"}, {"measurement": "inhibition at 1 µM", "setting": "1A9PTX22 cells [2]; Homo sapiens, 1A9/ptx-22, 120 h, read-out: inhibitory effect on proliferation", "result": 53, "unit": "%"}]}, {"compound": "CC(=O)O[C@H]1C(=O)[C@@]2(C)[C@H]([C@H](OC(=O)c3ccccc3)[C@]3(O)C[C@H](OC(=O)[C@H](O)[C@@H](NC(=O)c4ccccc4)c4ccccc4)C(C)=C1C3(C)C)[C@]1(OC(C)=O)CO[C@@H]1C[C@@H]2O", "note": "[paclitaxel]", "values": [{"measurement": "inhibition at 0.0001 µM", "setting": "1A9 cells; 120 h, 1A9, 0.1 nM paclitaxel alone, 5 days", "result": 21.8, "unit": "%"}, {"measurement": "inhibition at 10 pM", "setting": "SKOV-3 cells; Homo sapiens, SK-OV-3, 120 h, 0.01 nM paclitaxel alone", "result": 14.5, "unit": "%"}, {"measurement": "effect on cell proliferation", "setting": "1A9PTX22 cells [2]; 1.0 nM paclitaxel alone, 5 days", "result": "not affected"}, {"measurement": "effect on cell proliferation", "setting": "1A9PTX22 cells [2]; 5.0 nM paclitaxel alone, 5 days", "result": "not affected"}, {"measurement": "increase in paclitaxel concentration required in paclitaxel-resistant cell lines for a response similar to paclitaxel-sensitive cells", "setting": "1A9PTX22 cells [2]; paclitaxel alone, resistant vs sensitive cells", "result": "approximately 50 fold"}]}, {"compound": "COc1cc2c(c(OC)c1OC)-c1ccc(OC)c(=O)cc1[C@@H](NC(C)=O)CC2", "note": "[colchicine]", "values": [{"measurement": "concentration at which partial resistance of 1A9PTX22 is apparent", "setting": "1A9PTX22 cells [1]", "result": "≥ 100", "unit": "nM"}, {"measurement": "degree of sensitivity of 1A9PTX22 cells compared to parent cell line 1A9", "setting": "1A9PTX22 cells [1]", "result": "significantly reduced"}]}]}
